Key:
Assay type in all cases: cell-based, Human
H1299 NSCLC cells = assay: Cell viability by MTT, H1299; conditions: 20 µM for 72 h, vs control
Protocol: (§1) The effect of compounds on cell viability was performed by measuring 3-[4,5-dimethylthiazol-2-yl]-2,5-diphenyltetrazolium bromide inner salt (MTT, Sigma-Aldrich) dye absorbance (solid tumor cells) or by quantization of ATP present in metabolically active cells using CellTiter-Glo® Luminescent (Promega, Fitchburg, Wisconsin, USA) (hematologic cells) following manifacturer's protocol. To evaluate the cell colony-forming ability, cell suspension from different samples was seeded into 60-mm Petri dishes. After 10 days, colonies were stained with 2% methylene blue in 95% ethanol and counted (1 colony > 50 cells). The surviving fractions were calculated as the ratio of absolute survival of the treated sample/survival of DMSO-treated control sample.
Figure 4 Analysis of the effect of IS20 and IS21 on cell viability, clonogenic ability and tumor sphere formation in cancer cells. […] (B) Representative images and quantification of clonogenic ability evaluated in M14 and H1299 cells treated with IS20 or IS21 (20 μM for 72 h). […] (C) Quantification of tumor sphere formation of M14 and H1299 cells treated with IS20 or IS21 (20 μM for 72 h). […] (A-C) Data are reported as mean ± SD of three independent experiments. p-values were calculated between control (Ctrl) and treated cells, ** p < 0.001 and *** p < 0.0001.

M14 melanoma cells = assay: Cell viability by MTT, M14; conditions: for cell viability M14: 20 µM for 72 h, vs control; for IC50: Homo sapiens, M14, 72 h, MTT
Protocol: as §1
Figure 1 Cytotoxic screening of putative inhibitors of Bcl-2 anti-apoptotic proteins. (A) Flow cytometric quantification of propidium iodide exclusion assay in HL60 cells treated with the 49 putative Bcl-2 family inhibitors (50 μM, 72 h). (B) Analysis of cell viability by CellTiterGlo assay in HL60 cells treated for 24 h with concentrations ranging from 5 to 50 μM of the indicated compounds. (C-D) Analysis of cell viability by MTT assay in (C) M14 and (D) Sbcl2 melanoma cell lines treated for 72 h with concentrations ranging from 5 to 50 μM of the indicated compounds. (A-D) The results are reported as “viability of treated cells/viability of control cells (Ctrl)” × 100. Data are reported as mean of two (HL60) or three (M14 and Sbcl2) experiments ± SEM.
Figure 4 Analysis of the effect of IS20 and IS21 on cell viability, clonogenic ability and tumor sphere formation in cancer cells. (A) Analysis of cell viability by MTT assay in M14, H1299, HCT116 and MDA-MB-231 cell lines treated with IS20 or IS21 (20 μM for 72 h). The results are reported as “viability of treated cells/viability of control cells (Ctrl)” × 100. (B) Representative images and quantification of clonogenic ability evaluated in M14 and H1299 cells treated with IS20 or IS21 (20 μM for 72 h). Results are reported as percentage of clonogenicity of treated versus control cells. (C) Quantification of tumor sphere formation of M14 and H1299 cells treated with IS20 or IS21 (20 μM for 72 h). Results are reported as percentage of tumor sphere formation of treated versus control. (A-C) Data are reported as mean ± SD of three independent experiments. p-values were calculated between control (Ctrl) and treated cells, ** p < 0.001 and *** p < 0.0001.

H1299 cells = assay: Western blot of LC3B-I/LC3B-II (autophagy), H1299; conditions: 72 h, increasing concentration
Protocol: Western blot analyses of total protein extracts were performed as previously described. Immunodetection was performed using antibodies directed to poly (ADP-ribose) polymerase (PARP; BD Biosciences San Diego, CA, USA), LC3B (Cell Signaling Technology, Danvers, MA), HSP72/73 (Calbiochem, EMD Biosciences, La Jolla, CA), Bcl-2 (SC-509, Santa Cruz Biotechnology Inc, Dallas, TX, USA), Bcl-xL (SC-271121, Santa Cruz Biotechnology Inc), Mcl-1 (SC-12756, Santa Cruz Biotechnology Inc) α-tubulin (Santa Cruz Biotechnology Inc) actin (Sigma-Aldrich, St. Louis, Missouri, USA). Anti-rabbit or anti-mouse immunoglobulin G-horseradish peroxidase-conjugated antibodies (Amersham Biosciences, Freiburg, Germany) were used as secondary antibody. […]
Figure 6 Analysis of autophagosome accumulation in M14 and H1299 cells after treatment with IS20 or IS21. […] Ratio of LC3B-II on LC3B-I levels, after normalization on HSP72/73, Actin or α-Tubulin, is quantified by densitometric analysis. (D) (Upper panels) Representative images and (lower panels) relative quantification of fluorescence microscopic analysis of LC3B puncta positive cells in M14 EGFP-LC3B and H1299 EGFP-LC3B transfected cells, treated with IS20 or IS21 (20 µM for 72h). […] Cells with more than 10 puncta were considered autophagy-positive. p-values were calculated between untreated (Ctrl) and treated cells, * p < 0.05.

Compound | cell viability H1299 (H1299 NSCLC cells) | cell viability M14 (M14 melanoma cells) | IC50 (M14 melanoma cells) [µM] | ratio of LC3B-II on LC3B-I protein levels, H1299 (H1299 cells)
CCCCOc1ccc(C2/C(=C(\O)c3ccc4c(c3)CC(C)O4)C(=O)C(=O)N2c2nnc(SCc3ccc(Cl)cc3)s2)cc1OCC (centres unmarked) [IS20] | significant inhibition | significant inhibition | 19.8 | higher level
CCCCCOc1ccc(C2/C(=C(\O)c3ccc4c(c3)CC(C)O4)C(=O)C(=O)N2c2nnc(SCc3ccc(Cl)cc3)s2)cc1OCC (centres unmarked) [IS21] | significant inhibition | significant inhibition | 16.7 | higher level

Reference: paper PMC8899577, “Targeting the anti-apoptotic Bcl-2 family proteins: machine learning virtual screening and biological evaluation of new small molecules” (Theranostics, 2022)
